Key:
Type in all cases: in vivo
[1] = tested on: Polygonum convolvulus; assay: Post-emergence herbicidal activity against POLCO; conditions: dosage 320 g/ha, rated about 3 weeks after treatment; for pest or weed control at 320 g/ha: Fallopia convolvulus, 504 h
Procedure: (§1) POLCO: Polygonum convolvulus SETVI: Setaria viridis 2. Post-Emergence Herbicidal Action and Crop Plant Compatibility Seeds of monocotyledonous and dicotyledonous weeds and crop plants are placed in sandy loam in plastic or wood-fiber pots, covered with soil and cultivated in a greenhouse under controlled growth conditions. 2 to 3 weeks after sowing, the test plants are treated at the one-leaf stage. The compounds of the invention, formulated in the form of wettable powders (WP) or as emulsion concentrates (EC), are then sprayed onto the green parts of the plants as aqueous suspension or emulsion with addition of 0.5% additive at a water application rate of 600 l/ha (converted). After the test plants had been kept in the greenhouse under optimum growth conditions for about 3 weeks, the activity of the preparations is rated visually in comparison to untreated controls. For example, 100% activity=the plants have died, 0% activity=like control plants.

[2] = tested on: Stellaria media; assay: Post-emergence herbicidal activity against STEME; conditions: dosage 320 g/ha, rated about 3 weeks after treatment; for pest or weed control at 320 g/ha: Stellaria media, 504 h
Procedure: as §1, with “STEME: Stellaria media VERPE: Veronica persica” for “POLCO: Polygonum convolvulus SETVI: Setaria viridis”

[3] = tested on: Viola tricolor; assay: Post-emergence herbicidal activity against VIOTR; conditions: dosage 320 g/ha, rated about 3 weeks after treatment
Procedure: as §1, with “VIOTR: Viola tricolor” for “POLCO: Polygonum convolvulus SETVI: Setaria viridis”

[4] = tested on: Hordeum murinum; assay: Post-emergence herbicidal activity against HORMU; conditions: dosage 320 g/ha
Procedure: as §1, with “ECHCG: Echinochloa crus-galli HORMU: Hordeum murinum” for “POLCO: Polygonum convolvulus SETVI: Setaria viridis”

[5] = tested on: Amaranthus retroflexus; assay: Post-emergence herbicidal activity against AMARE; conditions: dosage 320 g/ha, rated about 3 weeks after treatment; for pest or weed control at 320 g/ha: Amaranthus retroflexus, 504 h
Procedure: as §1, with “AMARE: Amaranthus retroflexus AVEFA: Avena fatua” for “POLCO: Polygonum convolvulus SETVI: Setaria viridis”

[6] = tested on: Setaria viridis; assay: Post-emergence herbicidal activity against SETVI; conditions: dosage 320 g/ha, rated about 3 weeks after treatment; for pest or weed control at 320 g/ha: Setaria viridis, 504 h
Procedure: as §1

[7] = tested on: Lolium rigidum; assay: Post-emergence herbicidal activity against LOLRI; conditions: dosage 320 g/ha, rated about 3 weeks after treatment
Procedure: as §1, with “LOLRI: Lolium rigidum PHBPU: Pharbitis purpurea” for “POLCO: Polygonum convolvulus SETVI: Setaria viridis”

[8] = tested on: Abutilon theophrasti; assay: Post-emergence herbicidal activity against ABUTH; conditions: dosage 320 g/ha, rated about 3 weeks after treatment
Procedure: as §1, with “ABUTH: Abutilon theophrasti ALOMY: Alopecurus myosuroides” for “POLCO: Polygonum convolvulus SETVI: Setaria viridis”

[9] = tested on: Veronica persica; assay: Post-emergence herbicidal activity against VERPE; conditions: dosage 320 g/ha; for pest or weed control at 320 g/ha: Veronica persica, 504 h
Procedure: as §1, with “STEME: Stellaria media VERPE: Veronica persica” for “POLCO: Polygonum convolvulus SETVI: Setaria viridis”

[10] = tested on: Avena fatua; assay: Post-emergence herbicidal activity against AVEFA; conditions: dosage 320 g/ha, rated about 3 weeks after treatment; for pest or weed control at 320 g/ha: Avena fatua, 504 h
Procedure: as §1, with “AMARE: Amaranthus retroflexus AVEFA: Avena fatua” for “POLCO: Polygonum convolvulus SETVI: Setaria viridis”

[11] = tested on: Pharbitis purpurea; assay: Post-emergence herbicidal activity against PHBPU; conditions: dosage 320 g/ha, rated about 3 weeks after treatment; for pest or weed control at 320 g/ha: Ipomoea purpurea, 504 h
Procedure: as §1, with “LOLRI: Lolium rigidum PHBPU: Pharbitis purpurea” for “POLCO: Polygonum convolvulus SETVI: Setaria viridis”

[12] = tested on: Echinochloa crus-galli; assay: Post-emergence herbicidal activity against ECHCG; conditions: dosage 320 g/ha, rated about 3 weeks after treatment; for pest or weed control at 320 g/ha: Echinochloa crus-galli, 504 h
Procedure: as §1, with “ECHCG: Echinochloa crus-galli HORMU: Hordeum murinum” for “POLCO: Polygonum convolvulus SETVI: Setaria viridis”

[13] = tested on: Alopecurus myosuroides; assay: Post-emergence herbicidal activity against ALOMY; conditions: dosage 320 g/ha, rated about 3 weeks after treatment; for pest or weed control at 320 g/ha: Alopecurus myosuroides, 504 h
Procedure: as §1, with “ABUTH: Abutilon theophrasti ALOMY: Alopecurus myosuroides” for “POLCO: Polygonum convolvulus SETVI: Setaria viridis”

[14] = Post-emergence treatment, summary over harmful plants; conditions: 504 h, application rate of 0.32 kg of active substance or less per hectare, read-out: herbicidal action, post-emergence treatment (very good herbicidal activity)
Procedure: 2. Post-Emergence Herbicidal Action and Crop Plant Compatibility
as §1, with “Seeds” for “POLCO: Polygonum convolvulus SETVI: Setaria viridis 2. Post-Emergence Herbicidal Action and Crop Plant Compatibility Seeds”
As shown by the results, compounds according to the invention such as, for example, the compounds No. I-35 and other compounds from the tables (for example I-28, I-38, I-01, I-19, I-36, I-29, I-32, I-11, I-12, I-37, I-06, I-09, I-33, I-34, I-13, I-04, I-26, I-21, I-30, I-05, I-03, I-20, I-27, I-14, I-10, I-23, I-07, I-25, I-02, I-08, I-24, I-41, I-42, I-43, I-44, I-46, I-49, I-54, I-55, I-56) have, when used for post-emergence treatment, very good herbicidal activity (80% to 100% herbicidal action) against harmful plants such as Abutilon theophrasti, Alopecurus myosuroides, Amaranthus retroflexus, Avena fatua, Echinochloa crus-galli, Hordeum murinum, Lolium rigidum, Pharbitis purpurea, Polygonum convolvulus, Setaria viridis, Stellaria media, Veronica persica and Viola tricolor at an application rate of 0.32 kg of active substance or less per hectare.

C=C[C@@]1(C(=O)N[C@H]2CO[C@@H](C(=O)OC)C2)CC(c2cc(F)cc(F)c2)=NO1 (mixture of isomers) [I-22, methyl cis-4-[[(5R)-3-(3,5-difluorophenyl)-5-vinyl-4H-isoxazole-5-carbonyl]amino]tetrahydrofuran-2-carboxylate]
pest or weed control at 320 g/ha [1]: 90%

C=CC1(C(=O)NC2COC(C(=O)OCc3cccc(F)c3)C2)CC(c2cc(F)cc(F)c2)=NO1 (mixture of isomers) [I-52]
Post-emergence herbicidal activity against STEME in % [2]: 90%
Post-emergence herbicidal activity against VIOTR in % [3]: 90%
Post-emergence herbicidal activity against HORMU in % [4]: 90%
Post-emergence herbicidal activity against POLCO in % [1]: 90%
Post-emergence herbicidal activity against AMARE in % [5]: 90%
Post-emergence herbicidal activity against SETVI in % [6]: 90%
Post-emergence herbicidal activity against LOLRI in % [7]: 90%
Post-emergence herbicidal activity against ABUTH in % [8]: 90%
Post-emergence herbicidal activity against VERPE in % [9]: 90%
Post-emergence herbicidal activity against AVEFA in % [10]: 90%
Post-emergence herbicidal activity against PHBPU in % [11]: 90%
Post-emergence herbicidal activity against ECHCG in % [12]: 90%
Post-emergence herbicidal activity against ALOMY in % [13]: 90%

COC(=O)[C@H]1C[C@@H](NC(=O)C2(C)CC(c3cccc(F)c3)=NO2)CO1 (relative stereo) [I-13, methyl cis-4-[[3-(3-fluorophenyl)-5-methyl-4H-isoxazole-5-carbonyl]amino]tetrahydrofuran-2-carboxylate]
pest or weed control at 320 g/ha [14]: 80 to 100%
pest or weed control at 320 g/ha [1]: 80%
pest or weed control at 320 g/ha [6]: 80%
pest or weed control at 320 g/ha [9]: 80%
pest or weed control at 320 g/ha [10]: 90%
pest or weed control at 320 g/ha [11]: 90%
pest or weed control at 320 g/ha [12]: 80%
pest or weed control at 320 g/ha [13]: 90%

CC1(C(=O)N[C@H]2CO[C@@H](C(=O)O)C2)CC(c2cccc(F)c2)=NO1 (relative stereo) [I-20, cis-4-[[3-(3-fluorophenyl)-5-methyl-4H-isoxazole-5-carbonyl]amino]tetrahydrofuran-2-carboxylic acid]
pest or weed control at 320 g/ha [2]: 80%
pest or weed control at 320 g/ha [14]: 80 to 100%
pest or weed control at 320 g/ha [1]: 80%
pest or weed control at 320 g/ha [5]: 80%
pest or weed control at 320 g/ha [6]: 80%
pest or weed control at 320 g/ha [9]: 90%
pest or weed control at 320 g/ha [10]: 90%
pest or weed control at 320 g/ha [11]: 80%
pest or weed control at 320 g/ha [12]: 80%
pest or weed control at 320 g/ha [13]: 90%

COC(=O)C1(NC(=O)C2(C)CC(c3cc(F)cc(F)c3)=NO2)CCOC1 (stereo not shown) [I-17, methyl 3-[[3-(3,5-difluorophenyl)-5-methyl-4H-isoxazole-5-carbonyl]amino]tetrahydrofuran-3-carboxylate]
pest or weed control at 320 g/ha [1]: 90%
pest or weed control at 320 g/ha [10]: 80%

CCOC(=O)C1(NC(=O)C2(C)CC(c3cc(F)cc(F)c3)=NO2)CCOC1 (stereo not shown) [I-18, ethyl 3-[[3-(3,5-difluorophenyl)-5-methyl-4H-isoxazole-5-carbonyl]amino]tetrahydrofuran-3-carboxylate]
pest or weed control at 320 g/ha [9]: 80%
pest or weed control at 320 g/ha [10]: 100%
pest or weed control at 320 g/ha [13]: 80%

COC(=O)[C@]1(OC)C[C@H](NC(=O)C2(C)CC(c3cccc(F)c3)=NO2)CO1 (stereo partly drawn) [I-40, methyl (2S,4S)-4-[[3-(3-fluorophenyl)-5-methyl-4H-isoxazole-5-carbonyl]amino]-2-methoxytetrahydrofuran-2-carboxylate]
pest or weed control at 320 g/ha [2]: 80%
pest or weed control at 320 g/ha ([4]; Hordeum murinum, 504 h): 90%
pest or weed control at 320 g/ha [1]: 80%
pest or weed control at 320 g/ha [5]: 80%
pest or weed control at 320 g/ha [6]: 80%
pest or weed control at 320 g/ha [9]: 80%
pest or weed control at 320 g/ha [11]: 90%
pest or weed control at 320 g/ha [12]: 80%
pest or weed control at 320 g/ha [13]: 90%

Reference: patent US11597724B2, “Herbicidally active 3-phenylisoxazoline-5-carboxamides of tetrahydro and dihydrofuran carboxylic acids and esters” (Bayer Aktiengesellschaft, priority 2017, dated 2023)
